Experimental data from PMC6278385, “Preclinical Pharmacokinetics of C118P, a Novel Prodrug of Microtubules Inhibitor and Its Metabolite C118 in Mice, Rats, and Dogs” (Molecules, 2018).

Assay: Tissue distribution in tumor bearing mice
Type: in vivo, nude mice (BALB/cA) implanted with NCI-H460 tumor
Conditions: n=4
Experimental: The nude mice (BALB/cA) implanted with NCI-H460 tumor were provided by Shanghai Institute of Materia Medica. A total of 36 mice were divided into 9 groups with four animals in each group. After fasting overnight with free access to water, the mice were treated with 75 mg/kg C118P by i.v. The blood samples were collected at 2, 10, 20, 40 min, 1, 2, 4, 8, 12 h after treatment and the mice were anaesthetized and decapitated to obtain the blood and tumor tissue. Blood, brain, muscle, ovary, and lung from mice in the PK study were collected at 10 min, 1, 4, and 12 h. Tissues were cleaned by absorbent filter paper to remove the blood. Bloods were centrifuged at 10,000× g for 5 min. Each tissue (0.2 g) was homogenized with 2 mL water. The plasma samples and the homogenates were then processed and determined by the method described above. The concentration was determined by the calibration curve and the actual concentration was corrected by multiplying by 10 according to the dilution times. […]
4. The distribution of CA4P and CA4 in tumor bearing mice.
The nude mice (BALB/cA) implanted with NCI-H460 tumor were provided by Shanghai institute of Materia Medica. A total of 36 mice were divided into 9 groups with 4 animals in each group.
After fasted overnight with free access to water, the mice were treated with 75 mg/kg CA4P by i.v.
The blood samples were collected at 2, 10, 20, 40 min, 1, 2, 4, 8, 12 h after treatment and the mice were anaesthetized and decapitated to obtain the blood and tumor tissue. All procedure are same as C118P in the main text. The concentration was determined by the calibration curve and the actual concentration was corrected by multiplying by 10 according to the dilution times.

[1] = 0.17 h after i.v. 75 mg/kg of CA4P
[2] = 1 h after i.v. 75 mg/kg of CA4P
[3] = 4 h after i.v. 75 mg/kg of CA4P
[4] = 12 h after i.v. 75 mg/kg of CA4P

SMILES	concentration in Lung [1]	concentration in Plasma [1]	concentration in Tumor [1]	concentration in brain [1]	concentration in muscle [1]	concentration in ovary [1]	concentration in Lung [2]	concentration in Plasma [2]	concentration in Tumor [2]	concentration in brain [2]	concentration in muscle [2]	concentration in ovary [2]	concentration in Lung [3]	concentration in Plasma [3]	concentration in Tumor [3]	concentration in brain [3]	concentration in muscle [3]	concentration in Tumor [4]	concentration in muscle [4]	concentration in Plasma [4]
COc1ccc(/C=C\c2cc(OC)c(OC)c(OC)c2)cc1O [CA4, Combretastain A4, reference compound]	5849.0±580.7	12540.3±972.6	9835.7±1345.9	16165.3±1211.9	8526.1±3505.7	44183.5±13169.9	759.4±242.6	595.8±277.7	4803.9±770.6	2135.9±486.2	595.6±308.4	1288.3±711.2	106.8±12.1	21.1±4.5	3677.0±1079.9	97.6±21.3	142.0±33.9	735.1±426.2	51.9±36.8	
COc1ccc(/C=C\c2cc(OC)c(OC)c(OC)c2)cc1OP(=O)([O-])[O-].[Na+].[Na+] [CA4P, CA4 phosphate, reference compound]		15879.9±4473.5	142.8±49.2		345.2±68.9			324.9±105.2	26.5±1.4					15.0±6.8	34.5±1.9					12.6±3.3
